Source: patent US7115642B2, “Substituted diphenyl isoxazoles, pyrazoles and oxadiazoles useful for treating HCV infection” (priority 2003, dated 2006)

Test system: HCV replicon (5-2 Luc replicon-comprising cells)
Assay: HCV replicon assay (luciferase)
Type: cell-based, Hepatitis C virus
Details: 5-2 Luc replicon cells, luciferase readout; read-out: Replicon IC50
Description: In one embodiment, the inhibitory activity of the compounds can be confirmed in a replicon assay that assesses the ability of a test compound to block or inhibit HCV replication in replicon cells. One example of a suitable replicon assay is the liver cell-line Huh 7-based replicon assay described in Lohmann et al., 1999, Science 285:110–113. A specific example of this replicon assay which utilizes luciferase translation is provided in the Examples Section. In one embodiment of this assay, the amount of test compound that yields a 50% reduction in translation as compared to a control cell (IC50) may be determined.
The inhibitory activity of certain exemplary compounds of the invention was confirmed using an HCV replicon assay. The HCV replicon can include such features as the HCV 5′ untranslated region including the HCV IRES, the HCV 3′ untranslated region, selected HCV genes encoding HCV polypeptides, selectable markers, and a reporter gene such as luciferase, GFP, etc. In the assay, actively dividing 5-2 Luc replicon-comprising cells (obtained from Ralf Bartenschlager; see Lohmann et al., 1999, Science 285:110–113) were seeded at a density of between about 5,000 and 7,500 cells/well onto 96 well plates (about 90 μl of cells per well) and incubated at 37° C. and 5% CO2 for 24 hours. Then, the test compound (in a volume of about 10 μl) was added to the wells at various concentrations and the cells were incubated for an additional 24 hours before luciferase assay. Briefly, the Bright-Glo reagent was diluted 1:1 with PBS and 100 μl of diluted reagent was added to each well. After 5 min of incubation at room temperature, luciferin emission was quantified with a luminometer. In this assay, the amount of test compound that yielded a 50% reduction in luciferase activity (IC50) was determined.
In TABLE 1, a value of “+” indicates an IC50 of 10 μM or less in the specified assay; a value of “−” indicates an IC50 of greater than 10 μM in the specified assay.

O=C(Nc1cccc(-c2cc(-c3c(N4CCN(c5ccccn5)CC4)cccc3C(F)(F)F)no2)c1)C(Cl)Cl [Compound 520]
IC50: < 10 µM

O=C(Nc1cccc(-c2cc(-c3c(F)cccc3N3CCN(c4ccccn4)CC3)no2)c1)C(Cl)Cl [Compound 521]
IC50: < 10 µM

O=C(Nc1cccc(-c2cc(-c3c(Cl)cccc3N3CCN(Cc4cccnc4)CC3)no2)c1)C(Cl)Cl [Compound 522]
IC50: < 10 µM

O=C(Nc1cccc(-c2cc(-c3c(Cl)cccc3N3CCCN(c4ccccn4)CC3)no2)c1)C(Cl)Cl [Compound 523]
IC50: < 10 µM

COc1cccc(N2CCN(c3cccc(Cl)c3-c3cc(-c4cccc(NC(=O)C(Cl)Cl)c4)on3)CC2)c1 [Compound 524]
IC50: < 10 µM

O=C(Nc1cccc(-c2cc(-c3c(Cl)cccc3N3CCN(Cc4ccccn4)CC3)no2)c1)C(Cl)Cl [Compound 526]
IC50: < 10 µM

O=C(Nc1cccc(-c2cc(-c3c(Cl)cccc3N3CCC(OC(=O)C(Cl)Cl)CC3)no2)c1)C(Cl)Cl [Compound 527]
IC50: < 10 µM

O=C(Nc1cccc(-c2cc(-c3c(Cl)cccc3N3CCC(O)CC3)no2)c1)C(Cl)Cl [Compound 528]
IC50: < 10 µM

CS(=O)(=O)N1CCN(c2cccc(Cl)c2-c2cc(-c3cccc(NC(=O)C(Cl)Cl)c3)on2)CC1 [Compound 529]
IC50: < 10 µM

O=C(Nc1cccc(-c2cc(-c3c(Cl)cccc3N3CCN(C(=O)c4ccno4)CC3)no2)c1)C(Cl)Cl [Compound 530]
IC50: < 10 µM

CN(C)C(=O)N1CCN(c2cccc(Cl)c2-c2cc(-c3cccc(NC(=O)C(Cl)Cl)c3)on2)CC1 [Compound 531]
IC50: < 10 µM

CC(C)(C)OC(=O)NC(Cc1ccccc1)C(=O)N1CCN(c2cccc(Cl)c2-c2cc(-c3cccc(NC(=O)C(Cl)Cl)c3)on2)CC1 (stereo not drawn) [Compound 532]
IC50: < 10 µM

O=C(Nc1cccc(-c2cc(-c3c(Cl)cccc3N3CCN(C(=O)Cc4ccccc4)CC3)no2)c1)C(Cl)Cl [Compound 533]
IC50: < 10 µM

O=C(Nc1cccc(-c2cc(-c3c(Cl)cccc3N3CCN(C(=O)Nc4ccccc4)CC3)no2)c1)C(Cl)Cl [Compound 534]
IC50: < 10 µM

O=C(Nc1cccc(-c2cc(-c3c(Cl)cccc3N3CCN(C(=O)C4CC4)CC3)no2)c1)C(Cl)Cl [Compound 535]
IC50: < 10 µM

O=C(Nc1cccc(-c2cc(-c3c(Cl)cccc3N3CCN(c4ccc(C(F)(F)F)cn4)CC3)no2)c1)C(Cl)Cl [Compound 536]
IC50: < 10 µM

O=C(Nc1cccc(-c2cc(-c3c(Cl)cccc3N3CCN(c4ncccc4C(F)(F)F)CC3)no2)c1)C(Cl)Cl [Compound 538]
IC50: < 10 µM

O=C(Nc1cccc(-c2cc(-c3c(Cl)cccc3N3CCN(C(=O)c4c[nH]cn4)CC3)no2)c1)C(Cl)Cl [Compound 539]
IC50: < 10 µM

CN(C)S(=O)(=O)N1CCN(c2cccc(Cl)c2-c2cc(-c3cccc(NC(=O)C(Cl)Cl)c3)on2)CC1 [Compound 540]
IC50: < 10 µM

NC(Cc1ccccc1)C(=O)N1CCN(c2cccc(Cl)c2-c2cc(-c3cccc(NC(=O)C(Cl)Cl)c3)on2)CC1 (stereo not drawn) [Compound 541]
IC50: > 10 µM

Nc1cccc(Cl)c1-c1cc(-c2cccc(NC(=O)C(Cl)Cl)c2)on1 [Compound 542]
IC50: < 10 µM

O=C(NC1CCN(c2cccc(Cl)c2-c2cc(-c3cccc(NC(=O)C(Cl)Cl)c3)on2)CC1)c1ccco1 [Compound 543]
IC50: < 10 µM

O=C(NC1CCN(c2cccc(Cl)c2-c2cc(-c3cccc(NC(=O)C(Cl)Cl)c3)on2)CC1)c1ccccn1 [Compound 544]
IC50: < 10 µM

O=C(NC1CCN(c2cccc(Cl)c2-c2cc(-c3cccc(NC(=O)C(Cl)Cl)c3)on2)CC1)c1cccnc1 [Compound 545]
IC50: < 10 µM

CS(=O)(=O)NC1CCN(c2cccc(Cl)c2-c2cc(-c3cccc(NC(=O)C(Cl)Cl)c3)on2)CC1 [Compound 546]
IC50: < 10 µM

O=C(Nc1cccc(-c2cc(-c3c(Cl)cccc3N3CCC(NS(=O)(=O)c4ccccc4)CC3)no2)c1)C(Cl)Cl [Compound 547]
IC50: < 10 µM

O=C(Nc1ccccc1)NC1CCN(c2cccc(Cl)c2-c2cc(-c3cccc(NC(=O)C(Cl)Cl)c3)on2)CC1 [Compound 548]
IC50: < 10 µM

O=C(Nc1cccc(-c2cc(-c3c(Cl)cccc3N3CCN(Cc4ccccc4)CC3)no2)c1)C(Cl)Cl [Compound 549]
IC50: < 10 µM

O=C(Nc1cccc(-c2cc(-c3c(Cl)cccc3N3CCN(c4cccnc4)CC3)no2)c1)C(Cl)Cl [Compound 550]
IC50: < 10 µM

O=C(Nc1cccc(-c2cc(-c3c(Cl)cccc3N3CCN(C(=O)c4ccncc4)CC3)no2)c1)C(Cl)Cl [Compound 552]
IC50: < 10 µM

O=C(Nc1cccc(-c2cc(-c3c(Cl)cccc3N3CCN(C(=O)c4cccnc4)CC3)no2)c1)C(Cl)Cl [Compound 553]
IC50: < 10 µM

O=C(Nc1cccc(-c2cc(-c3c(Cl)cccc3N3CCN(C(=O)c4cccs4)CC3)no2)c1)C(Cl)Cl [Compound 554]
IC50: < 10 µM

O=C(Nc1cccc(-c2cc(-c3c(Cl)cccc3N3CCN(C(=O)c4cc5ccccc5[nH]4)CC3)no2)c1)C(Cl)Cl [Compound 555]
IC50: < 10 µM

O=C(Nc1cccc(-c2cc(-c3c(Cl)cccc3N3CCN(C(=O)c4cnccn4)CC3)no2)c1)C(Cl)Cl [Compound 556]
IC50: < 10 µM

O=C(Nc1cccc(-c2cc(-c3c(Cl)cccc3N3CCN(C(=O)c4ccc(-c5ccccc5)cc4)CC3)no2)c1)C(Cl)Cl [Compound 557]
IC50: > 10 µM

O=C(Nc1cccc(-c2cc(-c3c(Cl)cccc3N3CCN(C(=O)Cc4cccnc4)CC3)no2)c1)C(Cl)Cl [Compound 558]
IC50: < 10 µM

O=C(Nc1cccc(-c2cc(-c3c(Cl)cccc3Oc3cccnc3)no2)c1)C(Cl)Cl [Compound 559]
IC50: < 10 µM

CC(=O)Nc1cccc(Cl)c1-c1cc(-c2cccc(NC(=O)C(Cl)Cl)c2)on1 [Compound 560]
IC50: < 10 µM

CS(=O)(=O)Nc1cccc(Cl)c1-c1cc(-c2cccc(NC(=O)C(Cl)Cl)c2)on1 [Compound 561]
IC50: < 10 µM

O=C(Nc1cccc(Cl)c1-c1cc(-c2cccc(NC(=O)C(Cl)Cl)c2)on1)c1cccnc1 [Compound 562]
IC50: < 10 µM

CN(C(=O)C(Cl)Cl)c1cccc(-c2cc(-c3c(Cl)cccc3N=[N+]=[N-])no2)c1 [Compound 563]
IC50: < 10 µM

CN(C(=O)C(Cl)Cl)c1cccc(-c2cc(-c3c(N)cccc3Cl)no2)c1 [Compound 564]
IC50: > 10 µM

CC(=O)NC1CCN(c2cccc(Cl)c2-c2cc(-c3cccc(NC(=O)C(Cl)Cl)c3)on2)C1 (stereo not drawn) [Compound 565]
IC50: < 10 µM

O=C(Nc1cccc(-c2cc(-c3c(Cl)cccc3N3CCN(C(=O)C(F)(F)F)CC3)no2)c1)C(Cl)Cl [Compound 566]
IC50: < 10 µM

O=C(Nc1cccc(-c2cc(-c3c(Cl)cccc3N3CCN(S(=O)(=O)C(F)(F)F)CC3)no2)c1)C(Cl)Cl [Compound 567]
IC50: < 10 µM

CC(C)(C)OC(=O)N1CCC(Oc2cccc(Cl)c2-c2cc(-c3cccc(NC(=O)C(Cl)Cl)c3)on2)CC1 [Compound 568]
IC50: < 10 µM

O=C(Nc1cccc(-c2cc(-c3c(Cl)cccc3OC3CCNCC3)no2)c1)C(Cl)Cl [Compound 569]
IC50: < 10 µM

CC(C)(C)OC(=O)N1CCCC(Oc2cccc(Cl)c2-c2cc(-c3cccc(NC(=O)C(Cl)Cl)c3)on2)C1 (stereo not drawn) [Compound 570]
IC50: < 10 µM

O=C(Nc1cccc(-c2cc(-c3c(Cl)cccc3OC3CCCNC3)no2)c1)C(Cl)Cl (stereo not drawn) [Compound 571]
IC50: < 10 µM

O=C(NC1CCN(c2cccc(Cl)c2-c2cc(-c3cccc(NC(=O)C(Cl)Cl)c3)on2)C1)c1ccccn1 (stereo not drawn) [Compound 572]
IC50: < 10 µM

CS(=O)(=O)NC1CCN(c2cccc(Cl)c2-c2cc(-c3cccc(NC(=O)C(Cl)Cl)c3)on2)C1 (stereo not drawn) [Compound 573]
IC50: < 10 µM

CN(C)C(=O)NC1CCN(c2cccc(Cl)c2-c2cc(-c3cccc(NC(=O)C(Cl)Cl)c3)on2)C1 (stereo not drawn) [Compound 574]
IC50: < 10 µM

CCNC(=O)NC1CCN(c2cccc(Cl)c2-c2cc(-c3cccc(NC(=O)C(Cl)Cl)c3)on2)C1 (stereo not drawn) [Compound 575]
IC50: < 10 µM

CS(=O)(=O)N1CCC(Oc2cccc(Cl)c2-c2cc(-c3cccc(NC(=O)C(Cl)Cl)c3)on2)CC1 [Compound 576]
IC50: < 10 µM

CC(=O)N1CCC(Oc2cccc(Cl)c2-c2cc(-c3cccc(NC(=O)C(Cl)Cl)c3)on2)CC1 [Compound 577]
IC50: < 10 µM

CCNC(=O)N1CCC(Oc2cccc(Cl)c2-c2cc(-c3cccc(NC(=O)C(Cl)Cl)c3)on2)CC1 [Compound 578]
IC50: < 10 µM

CCNC(=O)NC1CCN(c2cccc(Cl)c2-c2cc(-c3cccc(NC(=O)C(Cl)Cl)c3)on2)CC1 [Compound 579]
IC50: < 10 µM

CN(c1cccc(Cl)c1-c1cc(-c2cccc(NC(=O)C(Cl)Cl)c2)on1)C1CCN(C(=O)OC(C)(C)C)CC1 [Compound 580]
IC50: < 10 µM

CN(c1cccc(Cl)c1-c1cc(-c2cccc(NC(=O)C(Cl)Cl)c2)on1)C1CCNCC1 [Compound 581]
IC50: < 10 µM

CC(=O)N1CCC(N(C)c2cccc(Cl)c2-c2cc(-c3cccc(NC(=O)C(Cl)Cl)c3)on2)CC1 [Compound 582]
IC50: < 10 µM
